US20030144310A1 (priority 2001, published 2003)
Where two headings read alike, the source gives them in different places.

How the values were obtained:
[1] = target: T1, rNPFF-1 (Rattus norvegicus, UniProt Q9EP86); test: Functional activity (EC50 and intrinsic activity relative to NPFF); type: cell-based; conditions: for Functional Activity rNPFF-1 I.A. %: intrinsic activity as percentage of maximal response by NPFF; for EC50: tested 0.001 nM to 3600 nM
T1 construct: expressed in transfected cells
T1 sequence (Q9EP86 whole entry): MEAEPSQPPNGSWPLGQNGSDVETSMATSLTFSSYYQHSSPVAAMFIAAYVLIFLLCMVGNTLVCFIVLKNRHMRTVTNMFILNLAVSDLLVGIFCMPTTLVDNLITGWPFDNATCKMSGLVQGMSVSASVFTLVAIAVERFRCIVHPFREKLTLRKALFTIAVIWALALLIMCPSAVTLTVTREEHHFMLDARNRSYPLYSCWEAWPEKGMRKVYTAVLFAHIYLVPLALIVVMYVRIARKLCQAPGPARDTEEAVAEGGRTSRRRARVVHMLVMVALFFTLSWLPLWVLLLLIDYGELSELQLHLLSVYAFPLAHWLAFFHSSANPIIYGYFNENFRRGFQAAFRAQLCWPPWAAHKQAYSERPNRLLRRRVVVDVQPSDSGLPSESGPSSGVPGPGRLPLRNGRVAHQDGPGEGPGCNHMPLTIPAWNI
Description: (§1) The data shown are representative of at least two independent experiments.

[2] = target: T1, rNPFF-1; test: Radioligand binding assay, competitive displacement of [125I]1DMeNPFF at cloned NPFF receptors; conditions: cloned rat receptor
[3] = target: T2, rNPFF-2 (Rattus norvegicus, UniProt Q9EQD2); test: Functional activity (EC50 and intrinsic activity relative to NPFF); type: cell-based; conditions: for Functional Activity rNPFF-2 I.A. %: intrinsic activity as percentage of maximal response by NPFF
T2 construct: expressed in transfected cells
T2 sequence (Q9EQD2 whole entry): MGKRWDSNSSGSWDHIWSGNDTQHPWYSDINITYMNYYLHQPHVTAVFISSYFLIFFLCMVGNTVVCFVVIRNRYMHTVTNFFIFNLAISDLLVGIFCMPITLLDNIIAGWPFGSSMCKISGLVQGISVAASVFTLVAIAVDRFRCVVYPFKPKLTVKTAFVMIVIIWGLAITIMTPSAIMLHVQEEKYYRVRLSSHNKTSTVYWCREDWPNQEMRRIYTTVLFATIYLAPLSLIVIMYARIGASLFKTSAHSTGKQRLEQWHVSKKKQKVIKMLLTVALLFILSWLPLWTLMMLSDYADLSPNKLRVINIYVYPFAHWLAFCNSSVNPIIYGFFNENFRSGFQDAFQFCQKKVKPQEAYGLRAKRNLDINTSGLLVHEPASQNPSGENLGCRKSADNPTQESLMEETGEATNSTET
Description: as §1

[4] = target: T2, rNPFF-2; test: Radioligand binding assay, competitive displacement of [125I]1DMeNPFF at cloned NPFF receptors; conditions: cloned rat receptor
[5] = system: rat bladder; test: Distension-induced rhythmic contraction (DIRC) model, micturition reflex; type: in vivo; conditions: i.v.; for inhibition of bladder activity, persisted for: anesthetized rat, figure legend (FIG. 1, FIG. 2)
Description: The effects of compounds on the micturition reflex were assessed in the “distension-induced rhythmic contraction” (DIRC) model (also called “volume-induced rhythmic contraction” model) in rats, as described in previous publications (e.g. Maggi, et al., 1987; Morikawa, et al., 1992; Guarneri, et al., 1993). This model is widely considered to be predictive for the actions of drugs to treat human urge incontinence (also referred to as detrusor instability or unstable bladder). Examples of drugs that are active in this model which also are used therapeutically in humans include oxybutynin and baclofen (Morikawa et al, 1992); imipramine and nortriptyline (36); and nifedipine and terodiline (37).
Female Sprague Dawley rats weighing approximately 300 g were anesthetized with subcutaneous urethane ([…]). The trachea was cannulated with PE240 tubing to provide a clear airway throughout the experiment. A midline abdominal incision was made and the left and right ureters were isolated. The ureters were ligated distally (to prevent escape of fluids from the bladder) and cannulated proximally with PE10 tubing. The incision was closed using 4-0 silk sutures, leaving the PE10 lines routed to the exterior for the elimination of urine. The bladder was canulated via the transurethral route using PE50 tubing inserted 2.5 cm beyond the urethral opening. This cannula was secured to the tail using tape and connected to a pressure transducer. To prevent leakage from the bladder, the cannula was tied tightly to the exterior urethral opening using 4-0 silk.
To initiate the micturition reflex, the bladder was first emptied by applying pressure to the lower abdomen, and then filled with normal saline in 100 μL increments (maximum=2 ml) until spontaneous bladder contractions occurred (typically 20-40 mmHg) at a rate of one contraction every 2 to 3 minutes. Once a regular rhythm was established, vehicle (saline) or test compounds were administered i.v. to examine their effects on bladder activity. The effect of a compound which inhibited the micturition reflex was expressed as its “disappearance time”, defined as the time between successive bladder contractions in the presence of the test compound minus the time between contractions before compound administration.
Female Sprague Dawley rats weighing approximately 300 g were anesthetized with subcutaneous urethane (1.2 g/kg). The trachea was cannulated with PE240 tubing to provide a clear airway throughout the experiment. A midline abdominal incision was made and the left and right ureters were isolated. The ureters were ligated distally (to prevent escape of fluids from the bladder) and cannulated proximally with PE10 tubing. […]

[6] = tested 0.001 nM to 3600 nM, read-out: Functional Activity rNPFF-2 EC50
[7] = rat cloned NPFF receptors, by IA and Ki

| Structure (SMILES) | Functional Activity rNPFF-1 I.A. % [1] [%] | EC50 [1] [nM] | Ki [2] [nM] | Functional Activity rNPFF-2 I.A. % [3] [%] | EC50 [3, 6] [nM] | Ki [4] [nM] | EC50 [3] [nM] | classification agonist/antagonist at NPFF1 receptors [1, 7] | classification agonist/antagonist at NPFF2 receptors [3, 7] | inhibition of distention induced contractions of the rat bladder ([5]; 3 mg/kg) | inhibition of bladder activity, persisted for [5] [min] | inhibition of distention induced contractions of the rat bladder ([5]; 1 mg/kg) |
| --- | --- | --- | --- | --- | --- | --- | --- | --- | --- | --- | --- | --- |
| N=C(N)NCCC[C@H](NS(=O)(=O)c1c(F)cccc1F)C(=O)N[C@H](Cc1ccccc1)C(N)=O [Compound 1032] | 47 | 644 | 1290 | 61 | 2760 | > 10000 | – | – | – | – | – | – |
| N=C(N)NCCC[C@H](NS(=O)(=O)c1ccc(F)cc1)C(=O)N[C@H](Cc1ccccc1)C(N)=O [Compound 1033] | 42 | 1600 | 458 | 57 | 1940 | > 10000 | – | – | – | – | – | – |
| N=C(N)NCCC[C@H](NS(=O)(=O)c1ccc([N+](=O)[O-])cc1[N+](=O)[O-])C(=O)N[C@@H](Cc1ccccc1)C(N)=O [Compound 2002] | 34 | – | 1390 | 05 | – | 5490 | > 10000 | – | – | – | – | – |
| N=C(N)NCCC[C@@H](NS(=O)(=O)c1cccc2ccccc12)C(=O)N[C@@H](Cc1ccccc1)C(N)=O [Compound 3001] | 1 | > 10000 | 46 | 79 | 378 | 2860 | – | antagonist (an antagonist has a Ki≦1.2 μM and an intrinsic activity (IA)≦15%) | agonist (an agonist has an intrinsic activity (IA)>15%) | – | – | – |
| Cc1ccc2c(C)cc(NC(=N)N)nc2c1 [N-(4,7-dimethyl-2-quinolinyl)guanidine] | – | – | – | – | – | – | – | – | – | complete inhibition | 12 | – |
| Cc1cc(NC(=N)N)nc2ccc(Cl)cc12 [N-(6-chloro-4-methyl-2-quinolinyl)guanidine] | – | – | – | – | – | – | – | – | – | – | 35 | complete inhibition |
| CN(C)c1cccc2c(S(=O)(=O)N[C@@H](CCCN=C(N)N)C(=O)N[C@@H](Cc3ccccc3)C(N)=O)cccc12 [dansyl-RFamide, reference compound] | 106 | 524 | 88 | 96 | 2520 | 2310 | – | – | – | – | – | – |
